Source: US20050090529A1, “3,5 Disubstituted indazole compounds with nitrogen-bearing 5-membered heterocycles, pharmaceutical compositions, and methods for mediating or inhibiting cell proliferation” (PFIZER INC, priority 2003, published 2005)

What follows are compounds tested on Cyclin-dependent kinase (assay: Cyclin-dependent kinase inhibition, % inhibition at 10 nM (library Examples 99-270)). Conditions: 10 nM compound.
Assay type: biochemical
Method in brief: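 Enzyme starts the reaction at 30° C, which runs 20 min with 25 μM [³²P/³³P]ATP and protein substrate (pH 7.4, 10 mM MgCl2, 2% DMSO). After EDTA quench, membrane-bound labelled substrate is read by phosphorimaging following acid washes.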

In order of rising “% Inhib @ 10 nM” value:
1. CCNCc1cncc(-c2ccc3[nH]nc(-c4ncc(C(=O)N5CCN(CC(=O)N6CCCCC6)CC5)[nH]4)c3c2)c1C [Example 246, ethyl({4-methyl-5-[3-(5-{[4-(2-oxo-2-piperidin-1-ylethyl)piperazin-1-yl]carbonyl}-1H-imidazol-2-yl)-1H-indazol-5-yl]pyridin-3-yl}methyl)amine]  26%
2. CCNCc1cncc(-c2ccc3[nH]nc(-c4ncc(C(=O)N(CCO)C5CCCCC5)[nH]4)c3c2)c1C [Example 245, N-cyclohexyl-2-(5-{5-[(ethylamino)methyl]-4-methylpyridin-3-yl}-1H-indazol-3-yl)-N-(2-hydroxyethyl)-1H-imidazole-5-carboxamide]  30%
3. CCNCc1cncc(-c2ccc3[nH]nc(-c4ncc(C(=O)N5CCCCC5Cc5ccccc5)[nH]4)c3c2)c1C (centres unmarked) [Example 233, {[5-(3-{5-[(2-benzylpipendin-1-yl)carbonyl]-1H-imidazal-2-yl)-1H-indazol-5-yl)-4-methylpyridin-3-yl]methyl}ethylamine]  32%
4. CCNCc1cncc(-c2ccc3[nH]nc(-c4ncc(C(=O)N5CCN(CC6CCCO6)CC5)[nH]4)c3c2)c1C (centres unmarked) [Example 229, ethyl({4-methyl-5-[3-(5-{[4-(tetrahydrofuran-2-ylmethyl)piperazin-1-yl]carbonyl}-1H-imidazol-2-yl)-1H-indazol-5-yl]pyridin-3-yl}methyl)amine]  33%
5. CCNCc1cncc(-c2ccc3[nH]nc(-c4ncc(C(=O)NCCC5CCOCC5)[nH]4)c3c2)c1C [Example 243, 2-(5-{5-[(ethylamino)methyl]-4-methylpyridin-3-yl}-1H-indazol-3-yl)-N-[2-(tetrahydro-2H-pyran-4-yl)ethyl]-1H-imidazole-5-carboxamide]  34%
6. CCNCc1cncc(-c2ccc3[nH]nc(-c4ncc(C(=O)NCC5COCCO5)[nH]4)c3c2)c1C (centres unmarked) [Example 237, N-(1,4-dioxan-2-ylmethyl)-2-(5-{5-[(ethyamino)methy]-4-methypyridin-3-yl}-1H-indazol-3-yl)-1H-imidazole-5-carboxamide]  47%
7. CCNCc1cncc(-c2ccc3[nH]nc(-c4ncc(C(=O)N5CCN(Cc6ccccn6)CC5)[nH]4)c3c2)c1C [Example 228, ethyl({4-methyl-5-[3-(5-{[4-(pyridin-2-ylmethyl)piperazin-1-yl]carbonyl)-1H-imidazol-2-yl)-1H-indazol-5-yl]pyridin-3-yl}methyl)amine]  50%
8. CCNCc1cncc(-c2ccc3[nH]nc(-c4ncc(C(=O)NC(CO)c5cccnc5)[nH]4)c3c2)c1C (centres unmarked) [Example 244]  55%
9. CCNCc1cncc(-c2ccc3[nH]nc(-c4ncc(C(=O)N(CCOC)CCOC)[nH]4)c3c2)c1C [Example 232, 2-(5-{5-[(ethylamino)methyl]-4-methylpyridin-3-yl}-1H-indazol-3-yl)-N,N-bis(2-methoxyethyl)-1H-imidazole-5-carboxamide]  58%
10. CCNCc1cncc(-c2ccc3[nH]nc(-c4ncc(C(=O)N(C)CCS(C)(=O)=O)[nH]4)c3c2)c1C [Example 241]  59%
11. CCNCc1cncc(-c2ccc3[nH]nc(-c4ncc(C(=O)N5CCN(c6ncccc6C#N)CC5)[nH]4)c3c2)c1C [Example 226]  62%
12. CCNCc1cncc(-c2ccc3[nH]nc(-c4ncc(C(=O)NCc5ccc(C(C)(C)O)cc5)[nH]4)c3c2)c1C [Example 235, 2-(5-{5-[(ethylamino)methyl]-4-methylpyridin-3-yl}-1H-indazol-3-yl)-N-[4-(1-hydroxy-1-methylethyl)benzyl]-1H-imidazole-5-carboxamide]  63%
13. CCNCc1cncc(-c2ccc3[nH]nc(-c4ncc(C(=O)N5CCC(c6cccnc6)C5)[nH]4)c3c2)c1C (centres unmarked) [Example 242, ethyl{[4-methyl-5-(3-{5-[(3-pyridin-3-ylpyrrolidin-1-yl)carbonyl]-1H-imidazol-2-yl}-1H-indazol-5-yl)pyridin-3-yl]methyl}amine]  66%
14. CCNCc1cncc(-c2ccc3[nH]nc(-c4ncc(C(=O)N5CCNC(=O)CC5)[nH]4)c3c2)c1C [Example 231, 1-{[2-(5-{5-[(ethylamino)methyl]-4-methylpyridin-3-yl}-1H-indazol-3-yl)-1H-imidazol-5-yl]carbonyl}-1,4-diazepan-5-one]  67%
15. CCNCc1cncc(-c2ccc3[nH]nc(-c4ncc(C(=O)N(C)Cc5cnn(-c6ccccc6)c5)[nH]4)c3c2)c1C [Example 225, 2-(5-{5-[(ethylamino)methyl]-4-methylpyridin-3-yl}-1H-indazol-3-yl)-N-methyl-N-[(1-phenyl-1H-pyrazol-4-yl)methyl]-1H-imidazole-5-carboxamide]  70%
16. CCNCc1cncc(-c2ccc3[nH]nc(-c4ncc(C(=O)N5CCC(S(C)(=O)=O)C5)[nH]4)c3c2)c1C (centres unmarked) [Example 240]  71%
17. CCNCc1cncc(-c2ccc3[nH]nc(-c4ncc(C(=O)NCc5ccc(-c6csnn6)cc5)[nH]4)c3c2)c1C [Example 224]  72%
18. CCNCc1cncc(-c2ccc3[nH]nc(-c4ncc(C(=O)N5CCN(c6ccc(F)cc6F)CC5)[nH]4)c3c2)c1C [Example 230]  74%
19. CCNCc1cncc(-c2ccc3[nH]nc(-c4ncc(C(=O)N5CCc6nc(C)sc6C5)[nH]4)c3c2)c1C [Example 234, ethyl{[4-methyl-5-(3-{5-[(2-methyl-6,7-dihydro[1,3]thiazolo[5,4-c]pyridin-5-(4H)-yl)carbonyl]-1H-imidazol-2-yl)-1H-indazol-5-yl)pyridin-3-yl]methyl}amine]  74%
20. CCNCc1cncc(-c2ccc3[nH]nc(-c4ncc(C(=O)N5CCN(c6cccc7ccccc67)CC5)[nH]4)c3c2)c1C [Example 236, ethyl({4-methyl-5-[3-(5-{[4-(1-naphthyl)piperazin-1-yl]carbonyl}-1H-imidazol-2-yl)-1H-indazol-5-yl]pyridin-3-yl}methyl)amine]  74%
21. CCNCc1cncc(-c2ccc3[nH]nc(-c4ncc(C(=O)NCc5ccc6[nH]c(C)cc6c5)[nH]4)c3c2)c1C [Example 238, 2-(5-{5-[(ethylamino)methy]-4-methylpyridin-3-yl}-1H-indazol-3-yl)-N-[(2-methyl-1H-indol-5-yl)methyl]-1H-imidazole-5-carboxamide]  75%
22. CCNCc1cncc(-c2ccc3[nH]nc(-c4ncc(C(=O)N5CCC(Cc6ccccc6)C5)[nH]4)c3c2)c1C (centres unmarked) [Example 239]  75%
23. CCNCc1cncc(-c2ccc3[nH]nc(-c4ncc(C(=O)N5Cc6ccccc6C5)[nH]4)c3c2)c1C [Example 227, [(5-{3-[5-(1,3-dihydro-2H-isoindol-2-ylcarbonyl)-1H-imidazol-2-yl]-1H-indazol-5-yl}-4-methylpyridin-3-yl)methyl]ethylamine]  84%
